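1) Cells in 96-well plates. 2) Compound, 48 h, 5 concentrations. 3) Linear interpolation between surrounding doses. 4) Unreached endpoint = highest concentration. Abbreviation: GI50, concentration required for 50% inhibition of growth.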 Activity calls are given as the source filed them. Rule as the data show it: active = GI50 up to about 1.1 µM and inactive = higher.
Assays:
Experiment in all cases: DTP human tumour cell line panel, 48 h
A549 = test system: A549
ACHN = test system: ACHN
BT-549 = test system: BT-549
COLO 205 = test system: COLO 205
HCT-116 = test system: HCT-116
HT-29 = test system: HT-29
Hs-578T = test system: Hs-578T
M14 = test system: M14
NCI-H226 = test system: NCI-H226
NCI-H522 = test system: NCI-H522
NCI/ADR-RES = test system: NCI/ADR-RES
RPMI-8226 = test system: RPMI-8226
SF-295 = test system: SF-295
SK-MEL-28 = test system: SK-MEL-28
SK-OV-3 = test system: SK-OV-3
SN12C = test system: SN12C
SNB-75 = test system: SNB-75
SR = test system: SR
T47D = test system: T47D
TK-10 = test system: TK-10

| Structure (SMILES) | GI50 (A549) | GI50 (ACHN) | GI50 (BT-549) | GI50 (COLO 205) | GI50 (HCT-116) | GI50 (HT-29) | GI50 (Hs-578T) | GI50 (M14) | GI50 (NCI-H226) | GI50 (NCI-H522) | GI50 (NCI/ADR-RES) | GI50 (RPMI-8226) | GI50 (SF-295) | GI50 (SK-MEL-28) | GI50 (SK-OV-3) | GI50 (SN12C) | GI50 (SNB-75) | GI50 (SR) | GI50 (T47D) | GI50 (TK-10) |
| --- | --- | --- | --- | --- | --- | --- | --- | --- | --- | --- | --- | --- | --- | --- | --- | --- | --- | --- | --- | --- |
| Cc1ccc(SCC(OCn2cnc3c(Cl)nc(N)nc32)[C@H](C)F)cc1 (stereo partly specified) | 69.5 µM (inactive) | 37.5 µM (inactive) | 52.4 µM (inactive) | > 100 µM (inactive) | 50.4 µM (inactive) | 82.2 µM (inactive) | > 100 µM (inactive) | > 100 µM (inactive) | > 100 µM (inactive) | 13.8 µM (inactive) | 30.1 µM (inactive) | 36.9 µM (inactive) | 53.7 µM (inactive) | > 100 µM (inactive) | > 100 µM (inactive) | 43.7 µM (inactive) | > 100 µM (inactive) | 28.2 µM (inactive) | 71.1 µM (inactive) | > 100 µM (inactive) |
| Nc1nc(N)c(-c2cccc(C(F)(F)F)c2)c(Cc2cccc(C(F)(F)F)c2)n1 | 0.628 µM (active) | 2.65 µM (inactive) | 10.2 µM (inactive) | 6.27 µM (inactive) | 0.64 µM (active) | 1.18 µM (inactive) | 14.2 µM (inactive) | 1.22 µM (inactive) | 10.4 µM (inactive) | 4.06 µM (inactive) | 7.57 µM (inactive) | 6.73 µM (inactive) | 1.52 µM (inactive) | 11.4 µM (inactive) | 8.97 µM (inactive) | 3.54 µM (inactive) | 13.6 µM (inactive) | 1.25 µM (inactive) | 12.8 µM (inactive) | 7.67 µM (inactive) |
| Nc1ccc2c(c1)C(=O)c1ccccc1-2 | > 100 µM (inactive) | 72.9 µM (inactive) | 34 µM (inactive) | 91.4 µM (inactive) | > 100 µM (inactive) | > 100 µM (inactive) | > 100 µM (inactive) | 57.4 µM (inactive) | > 100 µM (inactive) | > 100 µM (inactive) | > 100 µM (inactive) | > 100 µM (inactive) | > 100 µM (inactive) | > 100 µM (inactive) |  | > 100 µM (inactive) | > 100 µM (inactive) | 23.6 µM (inactive) | 61.8 µM (inactive) | > 100 µM (inactive) |
| Cc1ccc(-c2c3nc(c(-c4ccc(C)cc4)c4ccc([nH]4)c(-c4ccc(OCC5COC(C)(C)O5)cc4)c4nc(c(-c5ccc(C)cc5)c5ccc2[nH]5)C=C4)C=C3)cc1 (stereo unspecified) | > 31.6 µM (inactive) | > 31.6 µM (inactive) | > 100 µM (inactive) | > 31.6 µM (inactive) | > 31.6 µM (inactive) | > 31.6 µM (inactive) | 10.3 µM (inactive) | > 31.6 µM (inactive) | > 31.6 µM (inactive) | > 31.6 µM (inactive) | > 31.6 µM (inactive) | > 100 µM (inactive) | 20.5 µM (inactive) | > 31.6 µM (inactive) | > 10 µM (inactive) | > 31.6 µM (inactive) | 10.2 µM (inactive) | > 31.6 µM (inactive) | > 31.6 µM (inactive) | 21 µM (inactive) |
| O=C(NC1CCCCC1NC(c1ccccc1)(c1ccccc1)c1ccccc1)C(=O)NC1CCCCC1NC(c1ccccc1)(c1ccccc1)c1ccccc1 (stereo unspecified) | > 100 µM (inactive) | 92 µM (inactive) | 28.1 µM (inactive) | > 100 µM (inactive) | > 100 µM (inactive) | > 100 µM (inactive) | 13.6 µM (inactive) |  | 59.3 µM (inactive) | 89.9 µM (inactive) | 81.5 µM (inactive) | > 100 µM (inactive) | > 100 µM (inactive) | > 100 µM (inactive) | 28.6 µM (inactive) | > 100 µM (inactive) | 1.63 µM (inactive) | > 100 µM (inactive) | 60.4 µM (inactive) | > 100 µM (inactive) |
| COC(=O)C1Cc2c([nH]c3ccccc23)C(c2cccc(O)c2)N1 (stereo unspecified) | 41 µM (inactive) | 60 µM (inactive) | 22.3 µM (inactive) | 30.5 µM (inactive) | 35.7 µM (inactive) | 27.6 µM (inactive) | 37.4 µM (inactive) | 21.3 µM (inactive) | 40.7 µM (inactive) | 33.6 µM (inactive) | 22.9 µM (inactive) | 28.4 µM (inactive) | 45.7 µM (inactive) | 28.7 µM (inactive) | 56.4 µM (inactive) | 40.9 µM (inactive) | 23.6 µM (inactive) | 28.2 µM (inactive) | 41.5 µM (inactive) | > 100 µM (inactive) |
| CCOC(=O)CCC(NC(=O)c1ccc(Nc2nc3ccccc3nc2C(=O)OCC)s1)C(=O)OCC (stereo unspecified) | 88.1 µM (inactive) |  | 46 µM (inactive) | > 100 µM (inactive) | > 100 µM (inactive) | > 100 µM (inactive) | 56.4 µM (inactive) | > 100 µM (inactive) | 21.1 µM (inactive) | > 100 µM (inactive) | 19.9 µM (inactive) | > 100 µM (inactive) |  | > 100 µM (inactive) | > 100 µM (inactive) | > 100 µM (inactive) | > 100 µM (inactive) | > 100 µM (inactive) | > 100 µM (inactive) | > 100 µM (inactive) |

— ChEMBL document CHEMBL1201862, “PubChem BioAssay data set” (2004)
